Source: publication PMC4479448, “Delivery of Topically Applied Calpain Inhibitory Peptide to the Posterior Segment of the Rat Eye” (PLoS ONE, 2015)
Where a SMILES comes first, the peptide text is derived from it.

Experiments:
[1] = 1 mM eye drops twice a day for 7 days, adult female SD rats
Method: We performed topical instillation (20 μl) of 1 mM Tat-μCL dissolved in a sterile saline solution (pH 7.4) twice a day (9 a.m. and 5 p.m.) for 7 days in both eyes of adult female SD rats (3-month-old, weighing 350–400g) without anesthesia. […] Topical application was performed in home cages using a micropipette tip with residual liquid around the eyelids wiped off by a cotton swab. Every effort was taken to minimize suffering. Before the rat eyes were enucleated, rats were euthanized with inhalation of carbon dioxide. […] At each time point, 6 rats were examined, with 3 out of the 6 right eyes used for the immunohistochemistry and all of the left eyes used for the biochemical analyses. As a control, 3 rats were topically administered sterile saline for bilaterally using the same methods described above. Animals were randomly allocated into experimental or control group. Every effort was taken to reduce the number of animal used.

photoreceptors = settings: topical instillation of 1 mM eye drops, rhodopsin P23H transgenic rats; cited from earlier work
Description: Every effort was taken to minimize suffering. Before the rat eyes ... || Calpains are members of the Ca^2+-activated cysteine proteinases and play important roles in various physiological and pathological pathways, such as regulating signal transductions, the cell cycle, cell adhesion, gene expression, and cell death.

[2] = Sandwich ELISA quantification of topically instilled peptide in retinal extract; type: in vivo, Sprague-Dawley rats; settings: for roughly equivalent concentration of the peptide in the intracellular space: converted from ELISA value; for concentration of the Tat-μCL in the retina: 1 mM, 20 μl eye drops twice a day for 7 days, whole retina extract, sandwich ELISA, average ± SD, n = 6 eyes (6 rats)
Method: (§1) Every effort was taken to minimize suffering. […] Animals were randomly allocated into experimental or control group.
The amount of the peptide delivered to the retina was quantified by sandwich ELISA as per a previously reported method. In this procedure, we first added 50 μl of rabbit polyclonal anti-HIV1 tat antibody (1:2000, ab43014, Abcam) diluted with 0.05 M carbonate-bicarbonate buffer, pH 9.6, to 96-well immunoplates (Nunc, Roskilde, Denmark). After incubating the plates overnight at 4°C, the plates were washed three times with PBS-T, and then incubated with PBS-T containing 10% bovine serum albumin (BSA) at 37°C for 2 h. Subsequently, we then washed the plates with PBS and incubated the plates with 50 μl of retinal extract or standard peptide (100 amol, 1 fmol, 10 fmol, 100 fmol, 1 pmol, 10 pmol, 100 pmol and 1 nmol Tat-μCL) diluted with PBS-T containing 10% BSA at 37°C for 2 h. The retinal extract was obtained by sonication and gradual centrifugations at 600×g for 5 min, 4,500×g for 10 min, and 20,000×g for 20 min. The supernatant of the final centrifugation was used as the retinal extract. The protein concentration was measured by the Bradford’s assay with bovine serum albumin used as the standard. After washing the plate three times with PBS-T, the plates were incubated with 50 μl of mouse monoclonal anti-HIV1 tat antibody (1:1000, ab63957, Abcam) diluted with PBS-T containing 10% BSA at 37°C for 2 h. Subsequently, the plates were then washed three times with PBS-T and incubated with horse radish peroxidase (HRP)-conjugated rabbit anti-mouse IgG (1:1000) diluted with PBS-T containing 10% BSA at 37°C for 2 h. After incubation, the plates were washed three times with PBS-T and then once with distilled water. The reaction was performed by incubating the plates with 50 μl of citrate-phosphate buffer, pH 5.0, containing 0.04% o-phenylenediamine and 0.006% hydrogen peroxide. Color development was inhibited by the addition of 50 μl of 2.4 M sulfuric acid. Absorbance was determined at 492 nm.
All statistical analyses were conducted using the SPSS version 22 software program (IBM, Armonk, NY). A one-way ANOVA was used to statistically compare the results between multiple groups. And then, as a post hoc analysis, a Dunnett T3 test was used to determine significance between the two groups. In the present study, P < 0.05 was considered statistically significant. Experiments were performed in triplicate to confirm the reproducibility.

[3] = Immunohistochemical distribution of topically instilled peptide in and around the eye (anti-HIV1 tat antibody); type: in vivo, Sprague-Dawley rats; settings: for distribution of topically instilled peptide (immunoreactivity): n = 3 eyes (3 rats)
Method: as §1
Distribution of the peptide was analyzed by immune-positive reactions observed in and around the rat eyes. Immunohistochemical experiments were performed in line with our previously reported method. Briefly, rats were euthanized after the final eye drop instillation by inhalation of carbon dioxide at 1, 3 and 6 h. Eyes were immediately enucleated after euthanasia. For the immunohistochemistry, eyes were fixed in 4% paraformaldehyde in phosphate-buffered saline (PBS), pH 7.4, for 20 min at room temperature. Eyes were then placed in the fixative overnight at 4°C. Specimens were cryoprotected for 4 h in 10% then 20% sucrose in PBS, and then frozen in OCT compound. […] The sections were rinsed in PBS and blocked with 1% skim milk in PBS containing 0.05% Tween (PBS-T) for 2 h at room temperature. Sections were incubated overnight at 4°C with the mouse monoclonal antibody raised against HIV1 tat (ab63957, 1:200, Abcam, Cambridge, UK) diluted in 1% skim milk in PBS-T as the primary antibody. Sections were then washed with PBS-T and incubated with tetramethylrhodamine isothiocyanate isomer R (TRITC)-conjugated rabbit anti-mouse IgG (R0270, 1:200, Dako, Glostrup, Denmark) overnight at 4°C. Sections were washed with PBS-T and nuclei were counterstained with 4’ 6-diamidino-2-phenylindole (DAPI). Immunofluorescent images were obtained by laser confocal microscopy (FV1000-D; Olympus, Tokyo, Japan).

[4] = rat, in vivo; cited from earlier work

| Molecule | adverse effects [1] | adverse effects (photoreceptors) | roughly equivalent concentration of the peptide in the intracellular space ([2]; 1 h after final eye drops) [µM] | concentration of the Tat-μCL in the retina ([2]; 1 h after final instillation) [pg/μg protein] | roughly equivalent concentration of the peptide in the intracellular space ([2]; 3 h after final eye drops) [µM] | concentration of the Tat-μCL in the retina ([2]; 3 h after final instillation) [pg/μg protein] | roughly equivalent concentration of the peptide in the intracellular space ([2]; 6 h after final eye drops) [µM] | concentration of the Tat-μCL in the retina ([2]; 6 h after final instillation) [pg/μg protein] | time for which sufficient concentration (> IC50) is maintained in the rat retina ([2]; after final application of 1 mM eye drops) | half-life of Tat-μCL in the rat retina ([2]; estimated from ELISA results (Fig 4), topical 1 mM eye drops) | time after final application of most prominent immunoreactivity ([3]; anterior segment tissues, examined at 1 and 3 h) [h] | distribution of topically instilled peptide (immunoreactivity) ([3]; anterior segment) | time after final instillation of most prevalent immunoreactivity ([3]; optic disc area, examined at 1, 3 and 6 h) [h] | distribution of topically instilled peptide (immunoreactivity) ([3]; optic disc area) | time after final application of most abundant immunoreactivity ([3]; posterior segment, examined at 1, 3 and 6 h) [h] | distribution of topically instilled peptide (immunoreactivity) ([3]; posterior segment) | time of peak in the retina after eye drop application [4] [h] |
| --- | --- | --- | --- | --- | --- | --- | --- | --- | --- | --- | --- | --- | --- | --- | --- | --- | --- |
| CC(C)C[C@H](NC(=O)[C@H](C)NC(=O)[C@H](CC(=O)O)NC(=O)[C@@H]1CCCN1C(=O)[C@H](CCC(N)=O)NC(=O)[C@@H]1CCCN1C(=O)[C@@H]1CCCN1C(=O)[C@H](CCCNC(=N)N)NC(=O)[C@H](CCCNC(=N)N)NC(=O)[C@H](CCCNC(=N)N)NC(=O)[C@H](CCC(N)=O)NC(=O)[C@H](CCCNC(=N)N)NC(=O)[C@H](CCCNC(=N)N)NC(=O)[C@H](CCCCN)NC(=O)[C@H](CCCCN)NC(=O)[C@H](CCCNC(=N)N)NC(=O)CN)C(=O)N[C@@H](CCCCN)C(=O)N[C@@H](CO)C(=O)N[C@@H](CCCNC(=N)N)C(=O)N[C@H](C(=O)N[C@@H](CC(C)C)C(=O)N[C@@H](CCCNC(=N)N)C(=O)O)[C@@H](C)O [Tat-μCL] (H-GRKKRRQRRRPPQPDALKSRTLR-OH) | without any adverse effects | without causing any adverse effects | ~4.48 | 15.3 | ~1.70 | 5.8 | ~0.29 | 1.0 | at least 6 h | approximately 2.6 h | 1 | diffusely distributed in the various tissues including the cornea, sclera, iris, ciliary body, choroid and retinal pigment epithelium (RPE) | 1 | detected in the optic nerve, optic nerve sheath, optic disc, all layers of the retina, and the retrobulbar connective tissues | 1 | diffusely distributed throughout the retina, including the photoreceptor outer segments, outer nuclear layer, inner nuclear layer, and ganglion cell layer | – |
| nerve growth factor | – | – | – | – | – | – | – | – | – | – | – | – | – | – | – | – | 6 |
